Assay results: patent publication EP2030621A1, “Novel substituted pyrimidines as cysteine protease inhibitors” (GLAXO GROUP LIMITED, priority 2007, dated 2009)
Structures can show the parent of a compound that is named as a salt.

These compounds were tested on Plasmodium falciparum parasite (assay: Whole cell assay: whole cell activity against the parasite). Settings: not given.
Type: cell-based
Description: Compounds can be evaluated for whole cell actvity against the Plasmadium falciparum parasite according to the procedure described in Sijwali S. and Rosenthal P. J., (2004) Proceedings of the National Academy of Sciences of the United States of America (PNAS) 101(13), 4384-4389 (see in particular "Measurement of Parasite Growth rates and Inhibitor Sensitivity" on page 4385); IC50 values can be calculated as described in Singh A. and Rosenthal P. J., (2001) Antimicrobial Agents and Chemotherapy 45(3), 949-951 (see in particular page 950, first column); synchronised parasites can be prepared as described in Divo A. A. et al., (1985) Protozool. 32, 59-64. 3) In vitro models to evaluate activity against bone metastasis

SMILES | IC50 [µM]
CN1CCN(C2CCN(Cc3ccc(C(=O)NN(c4nc(C#N)ncc4Cl)C4CCCCC4)cc3)CC2)CC1 [Example 40, N'-(5-chloro-2-cyano-4-pyrimidinyl)-N'-cyclohexyl-4-{[4-(4-methyl-1-piperazinyl)-1-piperidinyl]methyl}benzohydrazide] | 0.0025 to 0.015
CN1CCC(CN2CCN(Cc3ccc(C(=O)NN(c4nc(C#N)ncc4Br)C4CCCC4)cc3)CC2)CC1 [Example 7, N'-(5-bromo-2-cyano-4-pyrimidinyl)-N'-cyclopentyl-4-({4-[(1-methyl-4-piperidinyl)methyl]-1-piperazinyl}methyl)benzohydrazide trifluoroacetate] | 0.001 to 0.0025

Same assay, conditions: Plasmodium falciparum

IC50 [µM] | SMILES
0.015 to 0.15 | CN(C)Cc1ccc(C(=O)NN(c2nc(C#N)ncc2Cl)C2CCCC2)cc1 [Example 54, N'-(5-chloro-2-cyano-4-pyrimidinyl)-N'-cyclopentyl-4-[(dimethylamino)methyl]benzohydrazide trifluoroacetate]
0.015 to 0.15 | CCN(C)Cc1ccc(C(=O)NN(c2nc(C#N)ncc2Cl)C2CCCC2)cc1 [Example 74, N'-(5-chloro-2-cyano-4-pyrimidinyl)-N'-cyclopentyl-4-{[ethyl(methyl)amino]methyl}benzohydrazide trifluoroacetate]
0.0025 to 0.015 | CN1CCN(C(=O)C2CCN(Cc3cccc(C(=O)NN(c4nc(C#N)ncc4Br)C4CCCCC4)c3)CC2)CC1 [Example 23, N'-(5-bromo-2-cyano-4-pyrimidinyl)-N'-cyclohexyl-3-[{4-[(4-methyl-1-piperazinyl)carbonyl]-1-piperidinyl}methyl)benzohydrazide trifluoroacetate]
0.0025 to 0.015 | CN1CCN(C(=O)C2CCN(Cc3ccc(C(=O)NN(c4nc(C#N)ncc4Br)C4CCCCC4)cc3)CC2)CC1 [Example 22, N'-(5-bromo-2-cyano-4-pyrimidinyl)-N'-cyclohexyl-4-({4-[(4-methyl-1-piperazinyl)carbonyl]-1-piperidinyl}methyl)benzohydrazide trifluoroacetate]
0.015 to 0.15 | CCCCN(C)Cc1ccc(C(=O)NN(c2nc(C#N)ncc2Cl)C2CCCC2)cc1 [Example 57, 4-{[butyl(methyl)amino]methyl}-N'-(5-chloro-2-cyano-4-pyrimidinyl)-N'-cyclopentylbenzohydrazide trifluoroacetate]
0.015 to 0.15 | CN1CCC(CN2CCN(Cc3ccc(C(=O)NN(c4nc(C#N)ncc4Cl)C4CCOCC4)cc3)CC2)CC1 [Example 35, N'-(5-Chloro-2-cyano-4-pyrimidinyl)-4-({4-[(1-methyl-4-piperidiny)methyl]-1-piperazinyl}methyl)-N'-(tetrahydro-2H-pyran-4-yl)benzohydrazide trifluoroacetate]
0.015 to 0.15 | CN(CCc1ccccc1)Cc1ccc(C(=O)NN(c2nc(C#N)ncc2Cl)C2CCCC2)cc1 [Example 62, N'-(5-chloro-2-cyano-4-pyrimidinyl)-N'-cyclopentyl-4-{[methyl(2-phenylethyl)amino]methyl}benzohydrazide trifluoroacetate]
0.015 to 0.15 | CN1CCN(Cc2ccc(C(=O)NN(c3nc(C#N)ncc3Cl)C3CCCCC3)cc2)CC1 [Example 51, N'-(5-chloro-2-cyano-4-pyrimidinyl)-N'-cyclohexyl-4-[(4-methyl-1-piperazinyl)methyl]benzohydrazide trifluoroacetate]
0.015 to 0.15 | CN1CCC(CN2CCN(Cc3ccc(C(=O)NN(c4nc(C#N)ncc4Br)C4CCOCC4)cc3)CC2)CC1 [Example 30, N'-(5-Bromo-2-cyano-4-pyrimidiny)-4-({4-[(1-methyl-4-piperidinyl)methyl]-1-piperazinyl}methyl)-N'-(tetrahydro-2H-pyran-4-yl)benzohydrazide trifluoroacetate]
0.015 to 0.15 | CC(C)N(Cc1ccc(C(=O)NN(c2nc(C#N)ncc2Cl)C2CCCC2)cc1)C1CCCCC1 [Example 75, N'-(5-chloro-2-cyano-4-pyrimidinyl)-4-{[cyclohexyl(1-methylethyl)amino]methyl}-N'-cyclopentylbenzohydrazide trifluoroacetate]
0.0025 to 0.015 | CC(C)N(Cc1ccc(C(=O)NN(c2nc(C#N)ncc2Cl)C2CCCC2)cc1)C(C)C [Example 72, trifluoroacetate]
0.0025 to 0.015 | CCN(Cc1ccc(C(=O)NN(c2nc(C#N)ncc2Cl)C2CCCC2)cc1)C(C)C [Example 68, N'-(5-chloro-2-cyano-4-pyrimidinyl)-N'-cyclopentyl-4-{[ethyl(1-methylethyl)amino]methyl}benzohydrazide trifluoroacetate]
0.0025 to 0.015 | CN1CCN(C(=O)C2CCN(Cc3ccc(C(=O)NN(c4nc(C#N)ncc4Br)C4CCCC4)cc3)CC2)CC1 [Example 9, N'-(5-bromo-2-cyano-4-pyrimidinyl)-N'-cyclopentyl-4-({4-[(4-methyl-1-piperazinyl)carbonyl]-1-piperidinyl}methyl)benzohydrazide trifluoroacetate]
0.0025 to 0.015 | CC1CCC(N(NC(=O)c2ccc(CN3CCN(CC4CCN(C)CC4)CC3)cc2)c2nc(C#N)ncc2Br)C1 (mixture of isomers) [Example 5, N'-(5-bromo-2-cyano-4-pyrimidinyl)-N'-(3-methylcyclopentyl)-4-({4-[(1-methyl-4-piperidinyl)methyl]-1-piperazinyl}methyl)benzohydrazide trifluoroacetate]
0.015 to 0.15 | CN1CCN(Cc2ccc(C(=O)NN(c3nc(C#N)ncc3Cl)C3CCOCC3)cc2)CC1 [Example 67, N'-(5-chloro-2-cyano-4-pyrimidinyl)-4-[(4-methyl-1-piperazinyl)methyl]-N'-(tetrahydro-2H-pyran-4-yl)benzohydrazide trifluoroacetate]
0.015 to 0.15 | CN(Cc1ccc(C(=O)NN(c2nc(C#N)ncc2Cl)C2CCCC2)cc1)CC(O)CO (centres unmarked) [Example 76, N'-(5-chloro-2-cyano-4-pyrimidinyl)-N'-cyclopentyl-4-{[(2,3-dihydroxypropyl)(methyl)amino]methyl}benzohydrazide trifluoroacetate]
0.015 to 0.15 | CN1CCN(c2cccc(C(=O)NN(c3nc(C#N)ncc3Cl)C3CCCC3)n2)CC1 [Example 78, N'-(5-chloro-2-cyano-4-pyrimidinyl)-N'-cyclopentyl-6-(4-methyl-1-piperazinyl)-2-pyridinecarbohydrazide trifluoroacetate]
0.015 to 0.15 | N#Cc1ncc(Br)c(N(NC(=O)c2ccc(CN3CCC(N4CCOCC4)CC3)cc2)C2CCCC2)n1 [Example 6, N'-(5-bromo-2-cyano-4-pyrimidinyl)-N'-cyclopentyl-4-{[4-(4-morpholinyl)-1-piperidinyl]methyl}benzohydrazide trifluoroacetate]
0.015 to 0.15 | CN1CCCC(CN2CCN(Cc3ccc(C(=O)NN(c4nc(C#N)ncc4Br)C4CCOCC4)cc3)CC2)C1 (centres unmarked) [Example 31, N'-(5-Bromo-2-cyano-4-pyrimidinyl)-4-({4-[(1-methyl-3-pipendinyl)methyl]-1-piperazinyl}methyl)-N'-(tetrahydro-2H-pyran-4-yl)benzohydrazide trifluoroacetate]
0.015 to 0.15 | CN(CCC(O)c1ccccc1)Cc1ccc(C(=O)NN(c2nc(C#N)ncc2Cl)C2CCCC2)cc1 (centres unmarked) [Example 59, N'-(5-chloro-2-cyano-4-pyrimidinyl)-N'-cyclopentyl-4-{[(3-hydroxy-3-phenylpropyl)(methyl)amino]methyl}benzohydrazide trifluoroacetate]
0.015 to 0.15 | CN1CCN(c2ccc(C(=O)NN(c3nc(C#N)ncc3Cl)C3CCCC3)cc2)CC1 [Example 52, N'-(5-chloro-2-cyano-4-pyrimidinyl)-N'-cyclopentyl-4-(4-methyl-1-piperazinyl)benzohydrazide trifluoroacetate]
0.015 to 0.15 | CN1CCN(Cc2ccc(-c3ccc(C(=O)NN(c4nc(C#N)ncc4Br)C4CCCCC4)cn3)cc2)CC1 [Example 44, N'-(5-bromo-2-cyano-4-pyrimidinyl)-N'-cyclohexyl-6-{4-[(4-methyl-1-piperazinyl)methyl]phenyl}-3-pyridinecarbohydrazide trifluoroacetate]
0.0025 to 0.015 | CN1CCN(C2CCN(Cc3ccc(C(=O)NN(c4nc(C#N)ncc4Cl)C4CCOCC4)cc3)CC2)CC1 [Example 34, N'-(5-Chloro-2-cyano-4-pyrimidinyl)-4-{[4-(4-methyl-1-piperazinyl)-1-piperidinyl]methyl}-N'-(tetrahydro-2H-pyran-4-yl)benzohydrazide trifluoroacetate]
0.015 to 0.15 | C[C@@H]1CCC[C@H]1N(NC(=O)c1ccc(F)cc1)c1nc(C#N)ncc1Br (racemic) [Example 43, N'-(5-bromo-2-cyano-4-pyrimidinyl)-4-fluoro-N'-[(1R,2R+1S,2S))-2-methylcyclopentyl]benzohydrazide trifluoroacetate]
0.0025 to 0.015 | CN(Cc1ccc(C(=O)NN(c2nc(C#N)ncc2Cl)C2CCCC2)cc1)C(C)(C)C [Example 73, N'-(5-chloro-2-cyano-4-pyrimidinyl)-N'-cyclopentyl-4-{[(1,1-dimethylethyl)(methyl)amino]methyl}benzohydrazide trifluoroacetate]

SMILES | IC50 [µM]
C[C@@H]1CCC[C@H]1N(NC(=O)c1ccc(CN2CCN(C)CC2)cc1)c1nc(C#N)ncc1Br (racemic) [Example 3, N'-(5-bromo-2-cyano-4-pyrimidinyl)-N'-[(1R,2R+1S,2S)-2-methylcyclopentyl]-4-[(4-methyl-1-piperazinyl)methyl]benzohydrazide trifluoroacetate] | 0.0025 to 0.015

Same assay, conditions: dihydrochloride

IC50 [µM] | SMILES
0.001 to 0.0025 | CN1CCN(C2CCN(Cc3ccc(C(=O)NN(c4nc(C#N)ncc4Cl)C4CCCCC4)cc3)CC2)CC1 [Example 41, N'-(5-chloro-2-cyano-4-pyrimidinyl)-N'-cyclohexyl-4-{[4-(4-methyl-1-piperazinyl)-1-piperidinyl]methyl}benzohydrazide dihydrochloride]
